# Assay results reported in US20100286090A1, “Treatment of Multiple Myeloma” (BRISTOL-MYERS SQUIBB COMPANY, priority 2005, published 2010).
# Tested on: MM cell lines
# Test: effect of dasatinib on cell viability of MM cell lines
# Format: cell-based
# Conditions: Homo sapiens; in 8/15 MM cell lines tested
# Description: FIG. 1 illustrates results obtained on the effect of dasatinib at varying concentrations on the cell viability of certain MM cell lines.
# Described herein are studies on the oral, multi-targeted kinase inhibitor dasatinib (BMS-354825, Bristol-Myers Squibb Co.) which inhibits BCR-ABL, SRC, c-KIT, PDGF-R, and ephrin (EPH) receptor kinases. Although BCR-ABL and c-KIT are not primary oncogenes driving MM proliferation and survival, dasatinib was studied because of (a) emerging data from our laboratory (CS Mitsiades, unpublished observations) on the expression patterns of EPH receptors in MM cell lines and primary tumor specimens; and (b) the roles of PDGF-R and SRC in tumor-microenvironment interactions, e.g., pericyte function in angiogenesis and osteoclast-mediated bone resorption, respectively.
# Dasatinib is active against human MM cells which are resistant to conventional or other investigational treatments. […] For those cell lines highly responsive to dasatinib, their IC50 was in a range of concentrations which are deemed clinically achievable levels (based on data derived from the ongoing clinical trials of this compound in other disease setting).
compound,measurement,value
Cc1nc(Nc2ncc(C(=O)Nc3c(C)cccc3Cl)s2)cc(N2CCN(CCO)CC2)n1 [dasatinib],IC50,< 100 nM
